“Also recorded” adds a separate entry of the source.
Assays:
[1] = tested on: GFP-expressing leukocytes recruited in response to CuSO4; assay: Zebrafish inflammation assay (CuSO4); format: in vivo
Description: Assay was performed as described in [47]. Fifteen dechorionated 55 hpf (hours post fertilization) embryos were transferred in each well of 6-well plates in 6 ml of embryo water. Idebenone was added at increasing concentrations (0.25, 0.75, 1.5, 3 and 5 μM). Embryos were incubated in the dark for 1 hr at 28 C, followed by a second 40 min incubation with copper sulfate (CuSO4) at a final concentration of 10 μM at 28 C in the dark. Embryos were then transferred to Eppendorf tubes and fixed in 4% paraformaldehyde in 1×PBS overnight at 4 C in the dark. Numbers of GFP+ cells were counted along the lateral line/neuromast clusters.
Previous studies have shown that PPAR agonists have anti-inflammatory properties, and can be used to treat a variety of inflammatory responses. To test if this is also true for idebenone, we used a zebrafish model of inflammation. Exposure of fish larvae to copper sulfate causes non-invasive damage to neuromast cells, which form external clusters along the lateral midline. This inflammation can be visualized via the recruitment of GFP-expressing leukocytes. As expected, this recruitment of GFP positive cells could be alleviated by addition of the known anti-inflammatory agent ibuprofen (FIG. 11).

[2] = tested on: diet-induced obese C57BL/6J male mice; assay: Diet-induced-obese (DIO) mouse study; format: in vivo
Description: Mouse-based biomedical research was performed by the Jackson Laboratory to test the efficacy of idebenone in a diet-induced-obese (DIO) mouse model and approved by the Institutional Animal Care and Use Committee (IACUC). To test the efficacy of idebenone in a db/db mouse model experiments were performed at the Univerity of Torotno and were approved by the Animal Care Committee at the University of Toronto.
DIO study: Forty four (44) diet-induced obese C57BL/6J male mice (started on high fat diet at the age of 6 weeks) were used at 16 wks of age. The mice were ear notched for identification using the standard mouse ID format. Mice were housed at a density of 3-4 per cage in polycarbonate cages, which were both individually and positively ventilated. Bed-o'Cobs® corn cob bedding was provided and was changed every two weeks or as needed.
The animal room was lighted entirely with artificial fluorescent lighting on controlled 12 hr light/dark cycle (6 a.m. to 6 p.m. light). The normal temperature and relative humidity ranges in the animal rooms were maintained at 22±4° C. and 50±15%, respectively. The animal room was set for 15 air exchanges per hour. Filtered tap water acidified to a pH of 2.5 to 3.1 was provided ad libitum. High fat diet (60 kcal %) was provided ad libitum. Following a 2 week acclimation, 32 mice were chosen based on desired body weight range. Remaining mice were euthanized. Mice were randomized by body weight into four treatment groups (n=8) by body weight and non-fasting blood glucose taken three days prior to the start of dosing. Body weights, non-fasting blood glucose, and insulin were measured before dosing. Dosing occurred for 5 days. Fasting blood glucose and insulin were measured at the end of dosing (mice were fasted overnight on day 5, and insulin and blood glucose was measured on day 6). Mice were euthanized by CO2 euthanasia. An aliquot of whole blood was processed to measure insulin.

[3] = molecular target: T1, PPARγ LBD (Homo sapiens, UniProt P37231); assay: In vitro co-purification with His-tagged PPARγ LBD, MS; format: binding; conditions: incubated with 10 μM idebenone
T1 construct: His-tagged PPARα, δ and γ LBDs were expressed in bacteria, Ni-NTA purified; His; made in house; host or cells: bacteria (E. coli)
T1 sequence (P37231 238-503 limits assumed): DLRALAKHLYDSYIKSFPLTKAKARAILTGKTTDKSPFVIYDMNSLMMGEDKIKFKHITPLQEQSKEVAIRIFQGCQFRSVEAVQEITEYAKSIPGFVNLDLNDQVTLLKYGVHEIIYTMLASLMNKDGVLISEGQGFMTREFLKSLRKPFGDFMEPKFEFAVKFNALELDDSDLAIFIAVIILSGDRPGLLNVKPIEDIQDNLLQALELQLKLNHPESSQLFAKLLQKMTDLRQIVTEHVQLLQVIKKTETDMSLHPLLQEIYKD
Description: To see if idebenone can bind to directly to other PPAR LBDs, His-tagged PPARα, δ and γ LBDs were expressed in bacteria, Ni-NTA purified and incubated with 10 μM idebenone. After several washes in a 10 kDa cut off Amicon centrifuge filter (Millipore), lipids were extracted and analyzed by MS.

[4] = molecular target: T2, PPARα (Homo sapiens, UniProt Q07869); assay: HEK293 cell culture luciferase reporter assay, hPPARα
T2 sequence (Q07869 178-468): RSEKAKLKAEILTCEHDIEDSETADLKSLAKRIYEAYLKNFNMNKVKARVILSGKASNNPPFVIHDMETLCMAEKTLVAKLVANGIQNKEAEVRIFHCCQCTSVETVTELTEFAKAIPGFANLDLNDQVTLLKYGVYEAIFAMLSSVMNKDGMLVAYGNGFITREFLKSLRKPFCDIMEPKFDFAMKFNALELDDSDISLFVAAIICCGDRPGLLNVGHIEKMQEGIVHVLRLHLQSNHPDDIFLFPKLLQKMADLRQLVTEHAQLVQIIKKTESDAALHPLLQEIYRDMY

[5] = tested on: 3T3-L1 cells; assay: Murine 3T3-L1 adipocyte differentiation assay (Oil Red O); format: cell-based; conditions: with dexamethasone, isobutylmethylxanthine and insulin; Oil Red O staining
Description: The cell line was originally obtained from ATCC and 3T3-L1 cells were maintained in the fibroblasts stage in DMEM (Gibco: 11995-065), 10% FBS (Gibco: 26140-079) and Pen-Strep solution (Gibco: 15140-122). Cells were grown in 75 cm^2 flasks and sub-cultured just prior to confluence. Medium was removed and washed twice with PBS. For cell differentiation 2 day post-confluent monolayers were incubated for 2 days in DMEM containing: 10% fetal bovine serum (FBS), 100 μg/ml IBMX (from a 500× stock in 0.15 M KOH, prepared fresh), 390 ng/ml dexamethasone (from a 1000× stock in EtOH) and 5 μg/ml insulin (from a 1000× stock in 0.1 M HCl). After 2 days media was replaced with DMEM+ 10% FBS and 5 μg insulin only and cells were maintained for another 2 days. Media was then replaced by DMEM+ 10% FBS for 5-6 days until differentiation was complete. After differentiation media was removed and cells were washed twice with PBS and then fixed in 4% PFA. Lipids were stained with Oil O red.

[6] = gavage twice daily for 5 days, 50 mpk idebenone, 30 mpk rosiglitazone

Binding to PPARγ LBD (co-purification, MS) [3]: strong binding
EC50 [4]: 3 µM
SMILES: COC1=C(OC)C(=O)C(CCCCCCCCCCO)=C(C)C1=O [Idebenone, 2-(10-hydroxydecyl)-5,6-dimethoxy-3-methyl-2,5-cyclohexadiene-1,4-dione]
Recruitment of GFP positive leukocytes (anti-inflammatory activity) ([1]; 10 μM CuSO4, 55 hpf embryos): robust anti-inflammatory agent; also recorded: anti-inflammatory activity
Concentration at which anti-inflammatory activity is detectable ([1]; idebenone 0.25-5 μM tested): sub micromolar
Insulin resistance (HOMA-IR) ([2]; 50 mpk idebenone twice daily for 5 days): clear improvement
Blood glucose levels [2, 6]: trend towards lowered blood glucose levels; also recorded: lowers
Fasting insulin levels [2, 6]: reduction in fasting insulin levels; also recorded: lowers
Maximum activation level versus full agonist, PPARα ([4]; HEK293, full agonist GW7647): significantly lower than those obtained using the full agonists
Lipid accumulation / adipocyte differentiation [5]: does not stimulate adipocyte differentiation and activity; also recorded: no accumulation of lipid
